Assay [1] addresses CDK12 (Homo sapiens, UniProt Q9NYV4). Kind of assay: Inhibition of cyclin-dependent kinase 12 (% enzyme activity at 1 uM and IC50). Conditions: for remaining activity at 1 µM: 1 uM compound. Format: biochemical.
The test system of assay [2] is MDA-MB-231 cell line. The assay can be described thus: Antiproliferative activity, MDA-MB-231 cell line (GI50). Format: cell-based. Conditions: Homo sapiens.
The subject of assay [3] is CCNK. The assay can be described thus: CCNK degradation (DC50, Dmax). Conditions: for Dmax (%): CCNK degradation. Format: cell-based.

CDK12, sequence (Q9NYV4 whole entry): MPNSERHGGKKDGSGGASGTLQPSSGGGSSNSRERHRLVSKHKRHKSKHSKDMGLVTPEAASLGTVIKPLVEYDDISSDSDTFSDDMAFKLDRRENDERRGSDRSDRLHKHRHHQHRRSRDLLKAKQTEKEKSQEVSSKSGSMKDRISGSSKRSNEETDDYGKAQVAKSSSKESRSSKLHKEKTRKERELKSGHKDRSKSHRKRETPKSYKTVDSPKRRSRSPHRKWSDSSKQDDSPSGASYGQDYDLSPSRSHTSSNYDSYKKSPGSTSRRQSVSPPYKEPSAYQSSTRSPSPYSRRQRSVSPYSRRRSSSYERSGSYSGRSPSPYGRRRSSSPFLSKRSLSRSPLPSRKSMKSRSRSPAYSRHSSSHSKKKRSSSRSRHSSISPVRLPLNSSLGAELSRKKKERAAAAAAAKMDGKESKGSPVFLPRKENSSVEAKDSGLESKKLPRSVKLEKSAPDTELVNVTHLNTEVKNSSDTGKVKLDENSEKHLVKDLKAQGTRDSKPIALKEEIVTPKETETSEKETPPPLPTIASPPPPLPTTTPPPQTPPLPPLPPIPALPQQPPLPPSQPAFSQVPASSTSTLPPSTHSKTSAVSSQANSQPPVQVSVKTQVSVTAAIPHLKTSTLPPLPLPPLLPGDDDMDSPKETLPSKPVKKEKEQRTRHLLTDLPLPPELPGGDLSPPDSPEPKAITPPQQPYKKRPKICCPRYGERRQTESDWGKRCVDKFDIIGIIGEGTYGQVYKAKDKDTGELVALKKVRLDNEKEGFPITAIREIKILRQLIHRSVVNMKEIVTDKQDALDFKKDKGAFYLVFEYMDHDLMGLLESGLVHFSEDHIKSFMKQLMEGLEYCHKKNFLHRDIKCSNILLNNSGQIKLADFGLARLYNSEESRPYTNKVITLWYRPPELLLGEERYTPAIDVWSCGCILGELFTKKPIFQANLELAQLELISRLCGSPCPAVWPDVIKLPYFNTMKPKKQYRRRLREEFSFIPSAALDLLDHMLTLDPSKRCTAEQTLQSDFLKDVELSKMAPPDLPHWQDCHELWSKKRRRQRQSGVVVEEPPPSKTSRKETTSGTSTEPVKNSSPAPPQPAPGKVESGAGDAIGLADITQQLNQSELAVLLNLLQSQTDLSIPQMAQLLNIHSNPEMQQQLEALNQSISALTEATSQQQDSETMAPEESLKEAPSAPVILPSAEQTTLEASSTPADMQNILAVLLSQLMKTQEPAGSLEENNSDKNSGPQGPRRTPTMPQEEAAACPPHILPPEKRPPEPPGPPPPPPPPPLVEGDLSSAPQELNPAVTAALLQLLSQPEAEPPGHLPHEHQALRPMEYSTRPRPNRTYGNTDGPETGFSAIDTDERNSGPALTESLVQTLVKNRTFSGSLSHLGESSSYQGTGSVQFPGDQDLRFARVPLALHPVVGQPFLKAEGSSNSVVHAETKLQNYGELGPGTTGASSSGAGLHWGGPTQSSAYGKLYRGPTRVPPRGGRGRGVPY
CDK12, sequence (O75909 whole entry partner): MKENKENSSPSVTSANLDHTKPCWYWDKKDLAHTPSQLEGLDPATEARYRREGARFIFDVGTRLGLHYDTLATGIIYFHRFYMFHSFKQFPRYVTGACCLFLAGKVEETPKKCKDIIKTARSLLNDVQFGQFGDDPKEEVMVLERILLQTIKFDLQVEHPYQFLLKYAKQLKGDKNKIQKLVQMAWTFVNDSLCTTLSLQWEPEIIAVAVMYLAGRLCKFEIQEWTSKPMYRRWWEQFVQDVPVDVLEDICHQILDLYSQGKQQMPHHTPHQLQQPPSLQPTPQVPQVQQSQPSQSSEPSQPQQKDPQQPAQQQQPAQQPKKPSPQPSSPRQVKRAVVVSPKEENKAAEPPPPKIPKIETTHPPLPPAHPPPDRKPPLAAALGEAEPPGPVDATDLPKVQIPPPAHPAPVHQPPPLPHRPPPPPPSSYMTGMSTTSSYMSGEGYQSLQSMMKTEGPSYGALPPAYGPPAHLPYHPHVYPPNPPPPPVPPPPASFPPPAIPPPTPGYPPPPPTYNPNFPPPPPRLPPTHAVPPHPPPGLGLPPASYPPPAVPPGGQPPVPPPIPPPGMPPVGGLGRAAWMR

Molecule `CN1CCN(c2cc(NCc3nc4c(F)c(F)ccc4[nH]3)c3ncc(-c4cnn(C5CC5)c4)n3n2)CC1` [Cmpd 38, 3-(1-cyclopropyl-1H-pyrazol-4-yl)-N-((4,5-difluoro-1H-benzo[d]imidazol-2-yl)methyl)-6-(4-methylpiperazin-1-yl) imidazo[1,2-b]pyridazin-8-amine] registered a remaining activity at 1 µM in assay [1] of 53%. This molecule came in with a GI50 in assay [2] of 5430 nM. In addition, in assay [3], the 50% degradation concentration (DC50) was 1600 nM and the “Dmax (%)” value is given as 65%.
In assay [1], `CC(C)n1cc(-c2cnc3c(NCc4nc5cccc(Cl)c5[nH]4)cc(N4CCOCC4)nn23)cn1` [Cmpd 18, N-((7-chloro-1H-benzo[d]imidazol-2-yl)methyl)-3-(1-isopropyl-1H-pyrazol-4-yl)-6-morpholinoimidazo[1,2-b]pyridazin-8-amine] displayed a concentration for half-maximal inhibition (IC50) of 997 nM and a remaining activity at 1 µM of 48%. The same molecule displayed a GI50 in assay [2] of 9920 nM. In assay [3], the 50% degradation concentration (DC50) is 1800 nM and the “Dmax (%)” value amounted to 70%.
On to `CC(C)n1cc(-c2cnc3c(NCc4nc5c(F)c(F)ccc5[nH]4)cc(N4CCN(C)CC4)nn23)cn1` [Cmpd 23, N-((4,5-difluoro-1H-benzo[d]imidazol-2-yl)methyl)-3-(1-isopropyl-1H-pyrazol-4-yl)-6-(4-methylpiperazin-1-yl) imidazo[1,2-b]pyridazin-8-amine], for which, in assay [1], half-maximal inhibition (IC50) was put at 1110 nM and the remaining activity at 1 µM is 53%. In assay [2], this molecule displayed a GI50 of 5180 nM. Half-maximal degradation in assay [3] (DC50) was put at 10000 nM.
As to `Cc1cc(-c2cnc3c(NCc4nc5c(F)cccc5[nH]4)cc(N4CCOCC4)nn23)cs1` [Cmpd 94, N-((4-fluoro-1H-benzo[d]imidazol-2-yl)methyl)-3-(5-methylthiophen-3-yl)-6-morpholinoimidazo[1,2-b]pyridazin-8-amine], in assay [1], the remaining activity at 1 µM is 70%. The molecule also gave a concentration for 50% growth inhibition (GI50) in assay [2] of 1500 nM. In assay [3], it took 1000 nM to reach half-maximal degradation (DC50) and the “Dmax (%)” value worked out at 80%.
For the molecule `Cc1ccnc2[nH]c(CNc3cc(N4CCOCC4)nn4c(-c5ccsc5)cnc34)nc12` [Cmpd 76, N-((7-methyl-3H-imidazo[4,5-b]pyridin-2-yl)methyl)-6-morpholino-3-(thiophen-3-yl) imidazo[1,2-b]pyridazin-8-amine], in assay [1], the IC50 was 7380 nM. Besides, growth in assay [2] was halved (GI50) at 376 nM. In assay [3], the DC50 turned out to be 250 nM and the “Dmax (%)” value is listed as 75%.
The corresponding values for `Cn1cc(-c2cnc3c(NCc4nc5cc(Cl)c(Cl)cc5[nH]4)cc(N4CCOCC4)nn23)cn1` [Cmpd 9, N-((5,6-dichloro-1H-benzo[d]imidazol-2-yl)methyl)-3-(1-methyl-1H-pyrazol-4-yl)-6-morpholinoimidazo[1,2-b]pyridazin-8-amine] are 9560 nM, 564 nM, 680 nM and 95%.
In assay [1], `CN1CCN(c2cc(NCc3nc4c(F)c(F)ccc4[nH]3)c3ncc(-c4ccsc4)n3n2)CC1` [Cmpd 78, N-((4,5-difluoro-1H-benzo[d]imidazol-2-yl)methyl)-6-(4-methylpiperazin-1-yl)-3-(thiophen-3-yl) imidazo[1,2-b]pyridazin-8-amine] displayed an IC50 of 473 nM and a remaining activity at 1 µM of 24%. The molecule also had a GI50 in assay [2] of 425 nM. In addition, in assay [3], the half-maximal degradation concentration (DC50) turned out to be 260 nM and the “Dmax (%)” value is given as 80%.
In assay [1], `Cc1ccnc2[nH]c(CNc3cc(N4CCOCC4)nn4c(-c5cnn(C(C)C)c5)cnc34)nc12` [Cmpd 21, 3-(1-isopropyl-1H-pyrazol-4-yl)-N-((7-methyl-3H-imidazo[4,5-b]pyridin-2-yl)methyl)-6-morpholinoimidazo[1,2-b]pyridazin-8-amine] showed an IC50 of 722 nM and a remaining activity at 1 µM of 34%. The GI50 in assay [2] was found to be 10000 nM. It took 10000 nM to reach half-maximal degradation in assay [3] (DC50).

(Values after US20260055114A1, “IMIDAZO[1,2-B]PYRIDAZINE INHIBITORS OF CYCLIN-DEPENDENT KINASES” (H. LEE MOFFITT CANCER CENTER AND RESEARCH INSTITUTE, INC., priority 2022, published 2026).)
